Source: PMC11233931, “Remodeling tumor‐associated macrophage for anti‐cancer effects by rational design of irreversible inhibition of mitogen‐activated protein kinase‐activated protein kinase 2” (MedComm, 2024)

Columns and labels:
Assay in all cases: Eurofins kinase selectivity profile against 380 other human recombinant kinases (Table S2)
Assay type in all cases: biochemical
[1] = target: T1, 380 human recombinant protein kinases (Homo sapiens, UniProt Q09013); conditions: DMPK(h), read-out: Inhibition rate
T1 construct: purchased Eurofins (Celle Lévescault)
T1 sequence (Q09013 1-629): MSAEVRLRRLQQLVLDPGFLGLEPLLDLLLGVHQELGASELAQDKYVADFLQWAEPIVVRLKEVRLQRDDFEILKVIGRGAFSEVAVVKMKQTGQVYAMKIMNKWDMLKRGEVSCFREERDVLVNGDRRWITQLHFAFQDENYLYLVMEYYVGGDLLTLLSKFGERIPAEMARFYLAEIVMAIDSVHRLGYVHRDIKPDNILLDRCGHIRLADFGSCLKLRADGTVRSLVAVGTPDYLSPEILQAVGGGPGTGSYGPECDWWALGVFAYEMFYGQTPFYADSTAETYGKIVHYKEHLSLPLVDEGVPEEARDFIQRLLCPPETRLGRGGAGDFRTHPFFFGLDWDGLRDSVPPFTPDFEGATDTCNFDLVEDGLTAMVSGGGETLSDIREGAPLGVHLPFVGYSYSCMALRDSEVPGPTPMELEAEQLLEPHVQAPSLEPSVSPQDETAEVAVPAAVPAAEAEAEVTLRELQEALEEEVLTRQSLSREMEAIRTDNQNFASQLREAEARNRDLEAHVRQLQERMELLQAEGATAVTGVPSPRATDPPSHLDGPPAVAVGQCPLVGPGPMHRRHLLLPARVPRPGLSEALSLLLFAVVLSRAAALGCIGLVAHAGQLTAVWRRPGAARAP
Outline: (§1)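 Commercial selectivity screen of the test compound against a panel of 380 human recombinant protein kinases, run by an outside contractor at several compound concentrations to check whether its potency was specific for MK2.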

[2] = target: T2, 380 human recombinant protein kinases (Homo sapiens, UniProt Q96PY6); conditions: NEK1(h), read-out: Inhibition rate
T2 construct: purchased Eurofins (Celle Lévescault)
T2 sequence (Q96PY6 1-1258): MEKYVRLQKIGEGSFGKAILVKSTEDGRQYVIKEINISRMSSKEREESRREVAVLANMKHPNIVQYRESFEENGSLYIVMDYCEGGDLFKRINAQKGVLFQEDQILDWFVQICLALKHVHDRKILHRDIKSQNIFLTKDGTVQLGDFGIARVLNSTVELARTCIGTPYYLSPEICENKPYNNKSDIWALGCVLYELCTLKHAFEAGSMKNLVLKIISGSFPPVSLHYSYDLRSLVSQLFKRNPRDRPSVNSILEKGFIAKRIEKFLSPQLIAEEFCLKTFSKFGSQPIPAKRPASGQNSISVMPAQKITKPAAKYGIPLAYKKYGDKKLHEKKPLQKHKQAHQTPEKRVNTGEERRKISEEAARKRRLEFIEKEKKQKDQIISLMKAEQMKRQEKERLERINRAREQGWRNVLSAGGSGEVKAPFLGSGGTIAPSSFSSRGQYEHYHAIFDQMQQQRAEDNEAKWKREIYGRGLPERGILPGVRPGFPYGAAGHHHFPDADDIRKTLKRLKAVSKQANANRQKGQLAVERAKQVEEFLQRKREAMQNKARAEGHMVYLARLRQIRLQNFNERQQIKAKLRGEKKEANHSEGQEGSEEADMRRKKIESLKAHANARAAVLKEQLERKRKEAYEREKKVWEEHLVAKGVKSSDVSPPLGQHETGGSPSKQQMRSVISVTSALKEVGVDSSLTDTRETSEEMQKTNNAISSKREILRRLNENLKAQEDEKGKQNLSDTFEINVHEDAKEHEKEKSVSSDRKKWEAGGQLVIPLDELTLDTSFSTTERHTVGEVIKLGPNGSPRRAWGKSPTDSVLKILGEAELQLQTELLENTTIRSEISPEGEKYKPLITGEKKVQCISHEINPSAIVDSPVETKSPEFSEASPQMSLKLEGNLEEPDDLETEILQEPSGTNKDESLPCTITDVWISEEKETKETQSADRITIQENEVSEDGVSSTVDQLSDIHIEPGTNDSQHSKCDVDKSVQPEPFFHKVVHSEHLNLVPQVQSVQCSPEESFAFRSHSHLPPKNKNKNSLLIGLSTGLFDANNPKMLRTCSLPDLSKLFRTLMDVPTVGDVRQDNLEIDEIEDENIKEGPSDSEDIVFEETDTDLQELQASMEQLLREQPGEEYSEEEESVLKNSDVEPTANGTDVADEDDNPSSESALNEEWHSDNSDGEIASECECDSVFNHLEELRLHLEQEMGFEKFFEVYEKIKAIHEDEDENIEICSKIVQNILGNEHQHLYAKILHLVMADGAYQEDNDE
Outline: as §1

[3] = target: T3, 380 human recombinant protein kinases (Homo sapiens, UniProt Q15831); conditions: LKB1(h), read-out: Inhibition rate
T3 construct: purchased Eurofins (Celle Lévescault)
T3 sequence (Q15831 1-433): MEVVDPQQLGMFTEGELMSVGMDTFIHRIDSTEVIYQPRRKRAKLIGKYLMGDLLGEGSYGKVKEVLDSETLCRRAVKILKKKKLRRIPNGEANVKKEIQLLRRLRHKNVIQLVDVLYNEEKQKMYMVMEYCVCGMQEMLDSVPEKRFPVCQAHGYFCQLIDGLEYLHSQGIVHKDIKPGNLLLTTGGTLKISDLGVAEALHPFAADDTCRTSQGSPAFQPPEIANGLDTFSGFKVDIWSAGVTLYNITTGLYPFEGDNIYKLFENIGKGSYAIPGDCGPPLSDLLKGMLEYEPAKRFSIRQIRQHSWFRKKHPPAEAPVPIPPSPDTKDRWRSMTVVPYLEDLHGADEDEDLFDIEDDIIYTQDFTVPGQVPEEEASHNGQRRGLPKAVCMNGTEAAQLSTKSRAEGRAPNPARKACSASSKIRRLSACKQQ
Outline: as §1

[4] = target: T4, 380 human recombinant protein kinases (Homo sapiens, UniProt Q13523); conditions: PRP4(h), read-out: Inhibition rate
T4 construct: purchased Eurofins (Celle Lévescault)
Outline: as §1

[5] = target: T5, 380 human recombinant protein kinases (Homo sapiens, UniProt P29376); conditions: LTK(h), read-out: Inhibition rate
T5 construct: purchased Eurofins (Celle Lévescault)
Outline: as §1

T5 sequence (P29376 17-864): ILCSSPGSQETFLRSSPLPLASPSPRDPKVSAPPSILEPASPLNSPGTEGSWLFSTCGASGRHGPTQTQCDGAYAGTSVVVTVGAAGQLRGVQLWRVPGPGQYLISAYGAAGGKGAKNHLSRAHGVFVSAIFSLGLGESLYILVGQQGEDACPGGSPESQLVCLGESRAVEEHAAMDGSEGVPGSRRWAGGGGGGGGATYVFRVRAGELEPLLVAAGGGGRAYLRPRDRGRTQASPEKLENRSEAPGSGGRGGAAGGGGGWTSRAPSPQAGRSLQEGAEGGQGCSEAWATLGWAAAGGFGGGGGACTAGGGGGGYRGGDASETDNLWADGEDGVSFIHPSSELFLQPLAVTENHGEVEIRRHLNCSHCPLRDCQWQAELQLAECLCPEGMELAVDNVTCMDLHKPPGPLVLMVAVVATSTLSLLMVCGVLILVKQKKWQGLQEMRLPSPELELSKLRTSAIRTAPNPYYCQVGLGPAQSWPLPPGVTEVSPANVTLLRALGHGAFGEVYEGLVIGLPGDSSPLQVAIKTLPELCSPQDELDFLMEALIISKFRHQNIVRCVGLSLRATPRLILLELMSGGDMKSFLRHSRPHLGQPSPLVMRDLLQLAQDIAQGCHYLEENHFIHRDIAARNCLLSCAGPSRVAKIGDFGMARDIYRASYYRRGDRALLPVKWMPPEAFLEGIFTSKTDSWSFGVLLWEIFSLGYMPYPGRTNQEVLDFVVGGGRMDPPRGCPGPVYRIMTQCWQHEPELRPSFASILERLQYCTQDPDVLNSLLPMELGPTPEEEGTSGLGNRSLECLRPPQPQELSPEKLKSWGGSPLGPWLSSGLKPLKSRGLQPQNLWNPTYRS
T4 sequence (Q13523 whole entry): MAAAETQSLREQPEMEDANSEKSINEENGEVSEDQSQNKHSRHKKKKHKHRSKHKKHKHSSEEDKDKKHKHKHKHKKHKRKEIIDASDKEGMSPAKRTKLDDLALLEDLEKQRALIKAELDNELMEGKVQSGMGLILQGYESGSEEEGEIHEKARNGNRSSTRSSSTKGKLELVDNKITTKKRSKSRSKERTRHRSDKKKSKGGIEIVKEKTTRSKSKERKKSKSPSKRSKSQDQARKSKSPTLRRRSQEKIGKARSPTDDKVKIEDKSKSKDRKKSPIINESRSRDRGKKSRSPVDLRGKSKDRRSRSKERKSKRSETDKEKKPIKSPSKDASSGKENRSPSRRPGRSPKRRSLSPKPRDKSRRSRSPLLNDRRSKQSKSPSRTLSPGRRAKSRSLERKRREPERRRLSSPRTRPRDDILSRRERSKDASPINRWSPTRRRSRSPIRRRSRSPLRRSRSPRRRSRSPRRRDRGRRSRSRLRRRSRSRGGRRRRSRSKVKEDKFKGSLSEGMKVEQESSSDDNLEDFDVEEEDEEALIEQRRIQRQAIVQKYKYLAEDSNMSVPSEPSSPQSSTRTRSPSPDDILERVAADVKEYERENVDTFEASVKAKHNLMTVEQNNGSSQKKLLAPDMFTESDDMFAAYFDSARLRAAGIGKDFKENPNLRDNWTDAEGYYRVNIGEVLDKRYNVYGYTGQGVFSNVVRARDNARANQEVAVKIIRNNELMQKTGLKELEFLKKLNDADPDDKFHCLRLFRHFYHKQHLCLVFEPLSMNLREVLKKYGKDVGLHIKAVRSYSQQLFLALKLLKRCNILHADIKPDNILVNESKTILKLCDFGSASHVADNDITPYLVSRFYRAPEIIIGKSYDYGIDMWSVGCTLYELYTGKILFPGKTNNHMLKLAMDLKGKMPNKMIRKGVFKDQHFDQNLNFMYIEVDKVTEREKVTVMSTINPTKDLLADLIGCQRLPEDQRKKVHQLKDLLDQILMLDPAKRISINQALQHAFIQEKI

C=CC(=O)Nc1cc(-c2cc(-c3cc4c([nH]3)CCNC4=O)ccn2)ccc1OC(F)(F)F [compound 11]
inhibition at 0.01 µM ([1]; 10 nM): -5%
inhibition at 0.1 µM ([1]; 100 nM): 1%
inhibition at 1 µM ([1]; 1000 nM): 7%
inhibition at 0.01 µM ([2]; 10 nM): -3%
inhibition at 0.1 µM ([2]; 100 nM): -1%
inhibition at 1 µM ([2]; 1000 nM): 11%
inhibition at 0.01 µM ([3]; 10 nM): -5%
inhibition at 0.1 µM ([3]; 100 nM): -3%
inhibition at 1 µM ([3]; 1000 nM): -6%
inhibition at 0.01 µM ([4]; 10 nM): -1%
inhibition at 0.1 µM ([4]; 100 nM): -3%
inhibition at 1 µM ([4]; 1000 nM): 12%
inhibition at 0.01 µM ([5]; 10 nM): -6%
inhibition at 0.1 µM ([5]; 100 nM): 2%
inhibition at 1 µM ([5]; 1000 nM): 6%
